Assay results from patent publication US20250195475A1, “CDK2 INHIBITOR AND PREPARATION METHOD AND USE THEREOF” (INVENTISBIO CO., LTD., priority 2022, published 2025).

Target: CDK2/CyclinE1 (Homo sapiens (Human), UniProt P24941)
Assay: CDK2 kinase assay (TR-FRET)
Format: biochemical
Conditions: CDK2/CyclinE1 0.5 nM, ATP 50 μM
Description: The purpose of these assays is to evaluate the inhibition of small molecule inhibitors by using TR-FRET assay.
Compound Preparation. Dissslove the compounds into DMSO solution to make 10 mM DMSO stock. Serially dilute the stock solution from highest concentration down to lowest in DMSO to make the compound stock plate (100× stock plates). To make 5× compound intermediate plate, add 38 μL of assay buffer (50 mM HEPES, pH 7.5, 0.05 mg/mL BSA, 10 mM MgCl2, 1 mM EGTA, 0.01% Tween-20, 2 mM DTT) into each well of the V-bottom plate; then transfer 2 μL of the stock compound solution of each concentration from the compound stock plate (100× stock), and mix well.
Enzyme reaction. Transfer 2 μL compound from 5× intermediate plate into assay plate, then add 4 μL/well 2.5× Enzyme mix to assay plate, incubation for 10 min at room temperature. For positive control wells, add 4 μL/well assay buffer instead of Enzyme mix. Then add 4 μL/well 2.5× Substrate mix to assay plate, and incubation at 25° C. for 30 min at room temperature. After reaction, 10 μL 2× Detection mix (final 15 mM EDTA, 1× LANCE Detection Buffer, 0.5 nM Detection antibody) was added and incubated for 1 h prior to detection with excitation and emission at 320 and 665 nm (Tecan Spark® TR-FRET mode Tecan).
Inhibition rate (IR) of the tested compounds was determined by the following formula: IR (%)=(average High control−compound well)/(average High control−average Low control)*100%. Fit the compound IC50 from non-linear regression equation: Y=Bottom+(Top−Bottom)/(1+10^((Log IC50−X)*HillSlope)). X: Log of cpd concentration; Y: Inhibition rate (TR); Top and Bottom: Plateaus in same units as Y, log IC50: same log units as X; HillSlope: Slope factor or Hill slope.

Row | IC50 [nM] | SMILES
1 | 14.4 | CC(C)NC(=O)OC1COC(c2cc(NC(=O)c3ccccc3)n[nH]2)C1 (stereo not shown) [Compound 66]
2 | 61.2 | CC(C)NC(=O)OC1COC(c2cc(NC(=O)c3ccccc3)n[nH]2)C1 (stereo not shown) [Compound 67]
3 | 8 | CO[C@H]1C[C@H](C(=O)Nc2cc([C@H]3CC[C@@H](OC(=O)NC(C)C)C3)[nH]n2)C1 [Compound 68]
4 | 18.8 | COCc1cc(C(=O)Nc2cc([C@H]3C[C@@H]4[C@H](C3)[C@H]4C(=O)NC(C)C)[nH]n2)n(C)n1 [Compound 69]
5 | 1.2 | CC(C)NC(=O)O[C@@H]1CC[C@H](c2cc(NC(=O)[C@@H]3CCN(S(=O)(=O)C4CC4)C3)n[nH]2)C1 [Compound 70]
6 | 8.7 | CC(C)NC(=O)O[C@@H]1CC[C@H](c2cc(NC(=O)[C@@H]3CCCN(S(C)(=O)=O)C3)n[nH]2)C1 [Compound 71]
7 | 210 | COC1CN(CC(=O)Nc2cc([C@H]3CC[C@@H](OC(=O)NC(C)C)C3)[nH]n2)C1 [Compound 72]
8 | 4.1 | COC[C@H]1C[C@@H]1C(=O)Nc1cc([C@H]2CC[C@@H](OC(=O)N[C@H](C)C3CC3)C2)[nH]n1 [Compound 73]
9 | 2.2 | CC(C)NC(=O)O[C@@H]1CC[C@H](c2cc(NC(=O)C3CN(S(C)(=O)=O)CC3C)n[nH]2)C1 (stereo partly shown) [Compound 74]
10 | 11.5 | CC(C)NC(=O)O[C@@H]1CC[C@H](c2cc(NC(=O)C3CN(S(C)(=O)=O)CC3C)n[nH]2)C1 (stereo partly shown) [Compound 75]
11 | 22.7 | CC(C)NC(=O)O[C@@H]1CC[C@H](c2cc(NC(=O)[C@H]3CCCN(S(C)(=O)=O)C3)n[nH]2)C1 [Compound 76]
12 | 56 | CC(C)NC(=O)O[C@@H]1CO[C@H](c2cc(NC(=O)c3cc(C4CC4)nn3C)n[nH]2)C1 [Compound 77]
13 | 18.7 | CCc1cc(C(=O)Nc2cc([C@@H]3C[C@H](OC(=O)NC(C)C)CO3)[nH]n2)n(C)n1 [Compound 78]
14 | 7.6 | CCc1cc(C(=O)Nc2cc([C@H]3C[C@@H](OC(=O)NC(C)C)CO3)[nH]n2)n(C)n1 [Compound 79]
15 | 15.4 | CC(C)NC(=O)O[C@H]1CO[C@@H](c2cc(NC(=O)c3cc(C4CC4)nn3C)n[nH]2)C1 [Compound 80]
16 | 0.9 | CS(=O)(=O)N1CC[C@@H](C(=O)Nc2cc([C@H]3CC[C@@H](OC(=O)NC45CC(C4)C5)C3)[nH]n2)C1 [Compound 81]
17 | 114 | CC(C)NC(=O)O[C@@H]1CC[C@H](c2cc(NC(=O)CN3CC(F)C3)n[nH]2)C1 [Compound 82]
18 | 1.1 | CC1(NC(=O)O[C@@H]2CC[C@H](c3cc(NC(=O)[C@@H]4CCN(S(C)(=O)=O)C4)n[nH]3)C2)CC1 [Compound 83]
19 | 2 | COCC1C[C@@H]1C(=O)Nc1cc([C@H]2CC[C@@H](OC(=O)NC(C)(C)C)C2)[nH]n1 (stereo partly shown) [Compound 85]
20 | 3.6 | CC(C)NC(=O)O[C@@H]1CC[C@H](c2cc(NC(=O)C3CC3C#N)n[nH]2)C1 (stereo partly shown) [Compound 87]
21 | 5.7 | Cc1cc(C(=O)Nc2cc([C@H]3C[C@@H](OC(=O)NC(C)C)CO3)[nH]n2)n(C)n1 [Compound 90]
22 | 19.1 | Cc1cc(C(=O)Nc2cc([C@@H]3C[C@H](OC(=O)NC(C)C)CO3)[nH]n2)n(C)n1 [Compound 91]

More lines, now with the values behind:

Row | SMILES | IC50 [nM]
23 | COCc1cc(C(=O)Nc2cc([C@@H]3C[C@H](OC(=O)NC(C)C)[C@@H]4C[C@@H]43)[nH]n2)n(C)n1 [Compound 9] | 1000
24 | COCc1cc(C(=O)Nc2n[nH]c([C@H]3CC[C@@H](OC(=O)NC(C)C)C3)c2F)n(C)n1 [Compound 10] | 92.4
25 | CC(C)NC(=O)O[C@@H]1CC[C@H](c2cc(Nc3nccc(-c4cnn(C)c4)n3)n[nH]2)C1 [Compound 11] | 40.7
26 | CC(C)NC(=O)O[C@@H]1CC[C@H](c2cc(Nc3nccc(CCO)n3)n[nH]2)C1 [Compound 12] | 10.1
27 | CC(C)NC(=O)O[C@@H]1CC[C@H](c2cc(NC(=O)[C@H]3CCN(CC(F)F)C3)n[nH]2)C1 [Compound 13] | 5.8
28 | CC(C)NC(=O)O[C@@H]1CC[C@H](c2cc(NC(=O)[C@H]3CCN(C(=O)C(C)C)C3)n[nH]2)C1 [Compound 14] | 1.7
29 | COCc1cc(C(=O)NC2=NCC([C@H]3CC[C@H](N4CCN(C(C)C)C4=O)C3)=C2)n(C)n1 [Compound 20] | 1000
30 | CC(C)NC(=O)OC1COC(c2cc(NC(=O)c3ccnn3C)n[nH]2)C1 (stereo not shown) [Compound 26] | 3.7
31 | CC(C)NC(=O)OC1COC(c2cc(NC(=O)c3ccnn3C)n[nH]2)C1 (stereo not shown) [Compound 27] | 1.2
32 | COC[C@@H]1C[C@H]1C(=O)Nc1cc([C@H]2CC[C@@H](OC(=O)NC(C)C)C2)[nH]n1 [Compound 28] | 110
33 | CC(C)NC(=O)O[C@@H]1CC[C@H](c2cc(Nc3nccc(CCO)n3)n[nH]2)C1 [Compound 29] | 68.8
34 | CC(C)NC(=O)O[C@@H]1CC[C@H](c2cc(NC(=O)[C@H]3CCN(C(=O)C(C)C)C3)n[nH]2)C1 [Compound 31] | 8.1
35 | CC(C)NC(=O)O[C@@H]1CC[C@H](c2cc(NC(=O)[C@H]3CCN(C(=O)c4cnn(C)c4)C3)n[nH]2)C1 [Compound 32] | 2.9
36 | COC[C@H]1C[C@@H]1C(=O)Nc1cc([C@H]2CC[C@@H](OC(=O)NC34CC(C3)C4)C2)[nH]n1 [Compound 34] | 0.7
37 | COC[C@H]1C[C@@H]1C(=O)Nc1cc([C@H]2CC[C@@H](OC(=O)NC3(C)CC3)C2)[nH]n1 [Compound 35] | 0.8
38 | CC(C)NC(=O)O[C@@H]1CC[C@H](c2cc(NC(=O)C3CCCC3)n[nH]2)C1 [Compound 37] | 2.9
39 | COC[C@H]1C[C@@H]1C(=O)Nc1cc([C@H]2CC[C@@H](OC(N)=O)C2)[nH]n1 [Compound 40] | 47.7
40 | Cn1nccc1C(=O)Nc1cc([C@H]2CC[C@@H](OC(=O)NC34CCC(CC3)OC4)C2)[nH]n1 [Compound 42] | 4.4
41 | CC(C)NC(=O)O[C@@H]1CC[C@H](c2cc(NC(=O)[C@H]3C[C@@H]3COC(C)C)n[nH]2)C1 [Compound 45] | 2.7
42 | CC(C)NC(=O)O[C@@H]1CC[C@H](c2cc(NC(=O)C34CC(C3)C4)n[nH]2)C1 [Compound 46] | 1.5
43 | CC1(NC(=O)OC2COC(c3cc(NC(=O)Cc4cc(F)cc(F)c4)n[nH]3)C2)CCOC1 (stereo not shown) [Compound 50] | 0.9
44 | CC1(NC(=O)OC2COC(c3cc(NC(=O)Cc4cc(F)cc(F)c4)n[nH]3)C2)CCOC1 (stereo not shown) [Compound 51] | 1.7
45 | CC(C)NC(=O)O[C@@H]1CC[C@H](c2cc(NC(=O)[C@H]3C[C@@H]3CC#N)n[nH]2)C1 [Compound 56] | 4
46 | COC[C@H]1C[C@@H]1C(=O)Nc1cc([C@H]2CC[C@@H](OC(=O)N[C@@H](C)C3CC3)C2)[nH]n1 [Compound 57] | 5.8
47 | CC(C)NC(=O)O[C@@H]1CC[C@H](c2cc(NC(=O)[C@@H]3CCN(S(=O)(=O)C(C)C)C3)n[nH]2)C1 [Compound 58] | 4.1
48 | CC[C@H](C)NC(=O)O[C@@H]1CC[C@H](c2cc(NC(=O)[C@@H]3CCN(S(C)(=O)=O)C3)n[nH]2)C1 [Compound 59] | 4.9
49 | CC(C)NC(=O)OC1COC(c2cc(NC(=O)Cc3ccc(C(F)(F)F)cc3)n[nH]2)C1 (stereo not shown) [Compound 62] | 2.3
50 | CC(C)NC(=O)OC1COC(c2cc(NC(=O)Cc3ccc(C(F)(F)F)cc3)n[nH]2)C1 (stereo not shown) [Compound 63] | 9.7
51 | CC(C)NC(=O)OC1COC(c2cc(NC(=O)Cc3ccccc3C(F)(F)F)n[nH]2)C1 (stereo not shown) [Compound 64] | 16.6
52 | CC(C)NC(=O)OC1COC(c2cc(NC(=O)Cc3ccccc3C(F)(F)F)n[nH]2)C1 (stereo not shown) [Compound 65] | 97.3
